Assay results as given in article PMC6452685, “Lysyl-tRNA synthetase as a drug target in malaria and cryptosporidiosis” (Proceedings of the National Academy of Sciences of the …, 2019).

Assays:
[1] = Intrinsic clearance in mouse liver microsomes; format: in vitro ADME
Protocol: 4.4 Int r ins ic C le ar ance (CLi) experiments […]
HUE50H ). The procedure was carried out as reported prev i ous l y (15). […] Immediately, at time zero, then at 3, 6, 9, 15 and 30 min an aliquot ( 50 μl) o f the i ncubati on mi x ture was remov ed and mi x ed with acetonitrile (100 μl) contai ni ng i nternal s tandard to stop the reaction. […] XLfi t software (I DBS, Guildford UK) was used to cal cul ate the exponenti al decay and consequentl y the rate cons tant (ke-1) from the rati o of peak area of tes t compou nd to i nternal s tandard at each ti me poi nt .
The rate o f i ntri nsi c cl earance (CLi ) of each test compoun d was then cal cul ated usi ng the f ol l owi ng […]
CLi (ml /mi n/g li ver) = ke-1 x V x Microsomal protein yield […]
where V (ml/mg protein) is the incubation volume/mg protein added (0.5) and microsomal protein yield is taken as being 52.5 mg protein per g liver. Verapami l (0. 5 µ M ) w as us ed as a pos i t i v e cont rol to confirm ac ceptable assay performance. […]
Cryopreserved mouse (batch MC539) and huma n (batch HU E50H) hepatocytes were supplied by ThermoFi sher Sci enti fi c, Pai sl ey, UK and Xenotech, LLC, respectively. Cryopreserved hepatocytes were rapidly thawed in a pre-heat ed w at er bat h at 37 °C before ad di ng to 50 ml of pre-warmed CHRM medi a (ThermoFi sher Sci enti fi c, Paisley, UK) and mi xed gentl y. […] […] 5 mi l li on v i abl e cel l s /ml i n s uppl emented W ME. Onl y s us pens i ons whi ch ac hi ev ed >80% pos t-thaw viability were us ed i n ex peri ment s . […]
DMSO and 0.25 million cells/ml. […]

C. parvum = experiment: In vitro Cryptosporidium time-kill curve assay in HCT-8 cells; format: cell-based; conditions: C. parvum in HCT-8 cell culture
Protocol: SUPPLEMENTARY INFORMATION ileocecal adenocarcinoma (HCT-8) cel l s (ATC C ) w ere cul t ured i n RP M I 1640 medi um (I nv i t rog en) supplemented with 10% fetal bovine serum (Sigma-Al dri ch), 120 U/ml peni ci l l i n, and 12 0 µg/ml streptomycin (ATCC), and used between passages 9 and 39 for all experiments. Cryptospori di um parvum Iowa isolate oocysts were purchased from Bunch Grass Farm (Deary, ID). Oocys ts were triggered to excyst by treating with 10 mM hydrochloric acid (10 min, 37°C) and the n 2 mM sodium taurocholate (Sigma-Al d r i c h ) i n P B S ( 1 0 m i n , […] ) . They w ere t hen added t o > 95% co nfl uent HC T-8 cel l monol ay ers i n 384-well plates (~5,500 oocysts/well). Ex pe ri me nt al compounds w e re adde d 3 h after i nfecti on, and assay pl ates were incubated for 48 h post-infection at 37°C unde r 5% CO2. Assay pl at es w ere t hen w as hed t h ree t i mes w i t h PBS cont ai ni ng 11 1 mM D-galactose, fixed with 4% parafo rmal dehy de i n PBS, t reat ed f or 10 mi n at 3 7°C w i t h 0. 25% T ri t on X-100, an d s t ai ned w i t h 1. […] […] […] Curves were pl ot t ed and t he hal f-maxi mal effecti ve (EC50) and 90% effecti v e concentrati on (EC90) were cal cul ated us i ng G raphPad Pri s m s oft w are, v ersi on 6. 01. […]
Cryptospori di um parvum elimination during cul ture in HCT-8 cells was measured as recently des cri bed (10). […]

PfKRS1 = PfKRS1 (Plasmodium falciparum, UniProt Q8IDJ8); experiment: PfKRS1 SAR assay, luciferase ATP consumption (Kinase-Glo); format: biochemical; parameters: recombinant PfKRS1 (77–583 and 80–583); 6xHis (N); made in house; host or cells: E. coli Rosetta BL21(DE3), vector pAVA0421; conditions: for IC50: Kinase-Glo assay
Sequence of PfKRS1 (Q8IDJ8 77-583): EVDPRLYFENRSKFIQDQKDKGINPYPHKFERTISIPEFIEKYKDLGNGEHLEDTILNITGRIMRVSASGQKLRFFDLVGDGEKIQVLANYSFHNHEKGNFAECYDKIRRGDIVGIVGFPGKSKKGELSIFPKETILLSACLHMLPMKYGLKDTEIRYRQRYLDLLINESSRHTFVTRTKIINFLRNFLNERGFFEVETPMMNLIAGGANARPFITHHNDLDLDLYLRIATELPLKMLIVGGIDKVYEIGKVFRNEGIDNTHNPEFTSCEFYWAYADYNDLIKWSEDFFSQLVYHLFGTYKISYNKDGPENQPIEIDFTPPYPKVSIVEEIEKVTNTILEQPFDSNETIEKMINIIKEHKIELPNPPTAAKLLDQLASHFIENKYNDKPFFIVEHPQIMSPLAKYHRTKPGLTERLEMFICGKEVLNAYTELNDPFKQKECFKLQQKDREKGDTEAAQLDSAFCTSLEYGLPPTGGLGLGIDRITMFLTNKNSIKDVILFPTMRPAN
Protocol: (§1) We produced recombinant PfKRS1 (77–583 and 80–583), CpKRS (46-end), and HsKRS (full-length) proteins and developed biochemical assays based on the luciferase ATP consumption assay (Kinase-Glo; Promega) ([16]), which was suitable for the high-throughput screening, and the pyrophosphate generation assay (EnzChek) ([17]) format for kinetic characterization of the enzymes. The activities of recombinant enzymes were analyzed by monitoring only the first stage of the aminoacylation reaction. This reaction is suitable for high-throughput screening campaigns and makes the reaction more amenable for steady-state kinetic studies. By using the EnzChek assay, which monitors the production of pyrophosphate (when coupled with pyrophosphatase), Km values were obtained for PfKRS1, CpKRS, and HsKRS for ATP and L-lysine (Table 1 and SI Appendix, Fig. S1 and Table S1). […] This may be due to structural differences (see below) between the active sites of the parasite and human enzymes. […]
(§2) 2.7 PfKR S1, CpKRS and HsKR S S AR Ass ay Usin g L ucife r ase ATP C onsumption ( Kinase Glo ®) Inhi bi ti on of KRS acti vity by cl adospori n and other compou nds was assayed i n t he buffered me di um.
(§3) Each as s ay w el l was compos ed of b uffer (as des cri bed i n Ta bl e S3), 10 µM l ysi ne and ei ther 8.1 nM PfKRS1, 8.1 nM CpKRS or 6.6 nM HsKRS. […] The react i on w a s initiated by the addition of 2 µM ATP. The plate was incubated with shaking at 90 rpm and 30°C for 120 mi n. […] Maximum and minimum signal controls were included in each reaction plate. […] Analysis and calculation of inhibitors IC50 values were performed using Graphpad® Prism software (GraphPad S oftware, San Diego, CA). […]

CpKRS = CpKRS (Cryptosporidium parvum, UniProt Q5CR27); experiment: CpKRS SAR assay, luciferase ATP consumption (Kinase-Glo); format: biochemical
Sequence of CpKRS (Q5CR27 entry or part of it): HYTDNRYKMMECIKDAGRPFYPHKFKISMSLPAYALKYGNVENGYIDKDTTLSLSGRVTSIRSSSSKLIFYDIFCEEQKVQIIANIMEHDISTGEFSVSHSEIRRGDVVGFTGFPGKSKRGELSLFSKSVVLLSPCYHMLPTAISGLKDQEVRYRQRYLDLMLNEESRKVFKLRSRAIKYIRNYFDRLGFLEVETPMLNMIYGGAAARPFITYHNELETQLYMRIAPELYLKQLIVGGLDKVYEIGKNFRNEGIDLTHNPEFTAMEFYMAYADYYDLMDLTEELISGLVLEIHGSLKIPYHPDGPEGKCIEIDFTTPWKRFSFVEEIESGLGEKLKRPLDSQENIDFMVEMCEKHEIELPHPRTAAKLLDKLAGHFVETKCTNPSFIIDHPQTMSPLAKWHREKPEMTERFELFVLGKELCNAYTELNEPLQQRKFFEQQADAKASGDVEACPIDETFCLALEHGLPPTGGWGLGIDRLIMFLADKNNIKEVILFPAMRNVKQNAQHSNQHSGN
Protocol: as §1, §2, §3

Compound	MLM CLi [1]	Microsomal stability CLint [1]	time-kill curve, parasite elimination (C. parvum)	IC50 (PfKRS1)	selectivity ratio for HsKRS/PfKRS1 (PfKRS1; in Kinase-Glo)	IC50 (CpKRS)
O=C(NCC1(O)CCC(F)(F)CC1)c1cc(=O)c2cc(F)ccc2o1 [Compound 5]	1 mL/min/g	1 mL⋅min^−1⋅g^−1	eliminated parasites at an exponential rate	15 nM	120 fold	130 nM
O=C(NCC1(O)CCCCC1)c1cc(=O)c2cc(F)ccc2o1 [Compound 4]	3 mL/min/g			5 nM		8 nM
O=C(NCC1CCCCC1)c1cc(=O)c2cc(F)ccc2o1 [Compound 3]	23 mL/min/g			14 nM		39 nM
C[C@H]1CCC[C@H](C[C@H]2Cc3cc(O)cc(O)c3C(=O)O2)O1 [Compound 1, cladosporin, reference compound]	20 mL/min/g		eliminated parasites at an exponential rate	4 nM		38 nM
O=C(NCC1CCCCC1)c1cc(=O)c2ccccc2o1 [Compound 2]	> 50 mL/min/g	> 50 mL⋅min^−1⋅g^−1		4 nM		22 nM
